Data: paper PMC8879702, “Discovery of Small Molecule Activators of Chemokine Receptor CXCR4 That Improve Diabetic Wound Healing” (International Journal of Molecular Sciences, 2022)

Key:
miR-29a = miR-29a expression in human diabetic fibroblasts (real time qPCR); format: cell-based; settings: 24 h
Method: An additional secondary screen was performed to further validate the activity of UCUF-728 as a selective CXCR4 receptor modulator. Human diabetic and non-diabetic fibroblasts were cultured with increasing concentrations of the compound. The cells were incubated for 24 h and then total cellular RNA was isolated to examine the ability of the compound to correct the abnormal expression of miR-15b, and miR-29a. We have shown that human diabetic skin has an increased miR-15b expression at the baseline compared to non-diabetic skin [7].
CEM-CCRF cells (ATCC CCL-119) were cultured in growth media consisting of RPMI 1640 (Corning; Corning NY, USA) supplemented with 10% Fetal Bovine Serum (Corning; Corning, NY, USA), and 100 IU penicillin, […] streptomycin sulfate (Corning; Corning, NY, USA). Cells were maintained in suspension and subcultured twice weekly to maintain cell densities between 0.8 × 10^6 cells/mL and 2.5 × 10^6 cells/mL to maintain exponential growth phase. […]
Total RNA was extracted with TRIzol reagent (Invitrogen, Carlsbad, CA, USA) according to the manufacturer’s established protocol. […] Quantitative PCR was performed on a BIO-RAD CFX96 according to the manufacturer’s instructions. Quantitative values of genes of interest are normalized based on U6. […]

CXCR4 receptor = CXCR4 receptor (Homo sapiens, UniProt P61073); experiment: cAMP signaling assay, forskolin-induced, PathHunter CHO-K1 CXCR4 cells; format: cell-based; settings: CHO-K1 CXCR4 overexpressed cells
Method: The CXCR4 receptor is a G-protein coupled receptor (GPCR) coupled to the Gi class, whose primary role is inhibition of adenylate cyclase. We tested the ability of UCUF-728 to induce a Gi-mediated cAMP-inhibitory cellular response. […] (Figure 2B).
Forskolin at final concentration of 0.5 mM was added to all wells using the TECAN dispenser. […] of PathHunter CHO-K1 CXCR4 cells (DiscoverX, Fremont, CA, USA) were added to compounds at 3000 cells/well, centrifuged at 1000 rpm for 30 s and incubated for 30 min at room temperature. DMSO (Sigma Aldrich, St. Louis, MO, USA) was normalized to 0.5%. […] of 4X Eu-cAMP tracer working solution were added to all wells, followed by addition of 5 μL of 4X Ulight-anti-cAMP working solution to all wells. Plates were centrifuged at 1000 rpm for 1 min and incubated for 1 h at room temperature, then read using CLARIOstar Plus (BMG LABTECH Inc., Cary, NC, USA) Lance CAMP protocol.

[1] = tested on: diabetic wounds in Db mice; experiment: full-thickness excisional 8 mm wound healing in diabetic Db mice; format: in vivo
Method: We examined the ability of our lead compound to improve diabetic wound healing in vivo. Full-thickness excisional 8 mm wounds were created in Db mice and were immediately treated with 10 µM UCUF-728 or PBS control. We monitored wound healing over the course of 22 days. Initial wound size was calculated immediately after wounding, and wound closure was assessed over time as the percentage of initial wound area. Figure 4A depicts the wound healing effect of UCUF-728 application on the excision wound model for sequential days following injury. […] The effect of UCUF-728 treatment on angiogenesis was assessed using immunohistochemistry for the endothelial marker CD31. Representative photos of immunoperoxidase staining for CD31 at 7 days in diabetic wounds treated with PBS or UCUF-728 are shown in Figure 4C.
All animal experiments were approved by the Institutional Animal Care and Use Committee at the University of Colorado Denver—Anschutz Medical Campus, and experimental protocols followed the guidelines described in the NIH Guide for the Care and Use of Laboratory Animals. In these experiments, we used 10-week-old, female, genetically diabetic C57BKS.Cg-m/Leprdb/J (Db) mice and heterozygous, non-diabetic (non-Db), age-matched female controls from the Jackson Laboratory (Bar Harbor, ME, USA). Mice were anesthetized with inhaled isoflurane. Each mouse was shaved and depilated before wounding. The dorsal skin was swabbed with alcohol and Betadine (Purdue Pharma, Stamford, CT, USA). Each mouse received a single, full-thickness dorsal wound (including panniculus carnosum) with an 8-mm punch biopsy (Miltex Inc., York, PA, USA). After wounding, a Hamilton syringe was used to deliver 50 μL of either 10 uM CAG1 or PBS, as a control. Ten […] were injected intradermally at 12, 3, 6 and 9 o’clock and at the wound base. All wounds were dressed with Tegaderm (3M, St. Paul, MN, USA), which was subsequently removed on postoperative day 2. Postoperatively, the mice received a subcutaneous injection of an analgesic, Banamine (Schering-Plough Animal Health Corp., Union, NJ, USA). A full-thickness skin sample, centered on the wound, was harvested 3 and 7 days after surgery (n = 5 per timepoint).

Chain of CXCR4 receptor (P61073 whole entry): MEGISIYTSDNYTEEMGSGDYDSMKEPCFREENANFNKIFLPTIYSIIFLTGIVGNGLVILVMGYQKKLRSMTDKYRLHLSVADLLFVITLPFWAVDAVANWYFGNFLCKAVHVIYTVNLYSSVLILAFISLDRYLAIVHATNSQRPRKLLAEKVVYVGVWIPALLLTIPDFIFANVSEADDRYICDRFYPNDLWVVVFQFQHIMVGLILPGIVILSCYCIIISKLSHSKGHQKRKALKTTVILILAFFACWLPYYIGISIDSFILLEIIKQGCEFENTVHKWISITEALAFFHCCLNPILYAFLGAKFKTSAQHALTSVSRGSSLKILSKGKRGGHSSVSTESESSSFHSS

Compound: COc1ccc(OC)c(NS(=O)(=O)c2ccc(-c3cnc(C4CC4)o3)cc2)c1 [Compound 19]
- miR-29a expression (miR-29a): significant decrease in the miR-29a expression level
- inhibition of forskolin-induced adenylate cyclase (cAMP signaling) (CXCR4 receptor): did not inhibit forskolin-induced adenylate cyclase
- time of full closure ([1]; Db mice, 8 mm wound, 10 µM intradermal at wounding, PBS 22 days): 14 days
- wound surface area ([1]; Db wounds, post-injury day 6, vs PBS): decrease in the wound surface area
- reduction of wound closure time ([1]; diabetic mice, vs PBS): 36%
- number of vessels (CD31 staining) ([1]; diabetic wounds, 7 days, vs PBS): significant increase in the number of vessels
